Values joined by “and” are separate entries in the source; they are usually repeats but may differ in a detail not shown here. Equal entries are not always repeated.
Legend:
HCT-116 cells [1] = assay: Subcellular distribution of oxaliplatin (total Pt by ICP-MS) in HCT-116 cells; conditions: HCT-116, 200 µm oxaliplatin, within 2 h
Procedure: (§1) Human colon cancer HCT-116 and LOVO cell line was purchased from cell bank of Shanghai Institute of Biochemistry and Cell Biology (Shanghai, China). HCT-116 cells and LOVO cells were maintained as monolayer cultures respectively in McCoy’s 5a medium and F-12K medium, supplemented with 10% fetal bovine serum, 1% penicillin and streptomycin, in a water-saturated atmosphere (95% air/5% CO2) at 37°C.
(§2) We treated the cell monolayers in the same way as the uptake study above.
(§3) Finally, all the monolayers of cells treated with drug-containing medium were washed three times with cold HBSS. Then cells were harvested by 0.25% trypsin digestion and the resulting cell suspension was centrifuged at 1,000 rpm for 5 min. For the uptake and elimination studies, pellets were then diluted in appropriate volume of water and repeatedly freeze-thawed three times to obtain drug-containing cell samples. For the subcellular distribution study, the pellets were further treated according to the manufacturer’s protocol of mitochondrial/nuclear separation kit (KeyGEN BioTECH, Nanjing, China) with differential centrifugation method to prepare the isolated cytosol, nucleus, and mitochondria samples. The cytosol, nucleus, and mitochondria were dissolved in the corresponding buffer salt from the instruction. […]
(§4) All the prepared subcellular samples for cytosol, nucleus, and mitochondria are determined by ICP-MS method.

HCT-116 cells [2] = assay: Uptake of oxaliplatin (total platinum and intact drug) in HCT-116 cells
Procedure: as §1
(§5) For the temperature dependent study, the cell monolayers were treated with 4 ml drug-containing medium at 200 µm for 30 min incubation respectively at 4 °C and 37 °C.
(§6) Finally, all the monolayers of cells treated with drug-containing medium were washed three times with cold HBSS. Then cells were harvested by 0.25% trypsin digestion and the resulting cell suspension was centrifuged at 1,000 rpm for 5 min. For the uptake and elimination studies, pellets were then diluted in appropriate volume of water and repeatedly freeze-thawed three times to obtain drug-containing cell samples. For the subcellular distribution study, the pellets were further treated according to the manufacturer’s protocol of mitochondrial/nuclear separation kit (KeyGEN BioTECH, Nanjing, China) with differential centrifugation method to prepare the isolated cytosol, nucleus, and mitochondria samples. The cytosol, nucleus, and mitochondria were dissolved in the corresponding buffer salt from the instruction. An aliquot of 20 μl of each cellular or subcellular sample was removed for protein determination using BCA protein assay kit according to the manufacturer’s instructions (micro-well plate protocol).

LOVO cells [3] = assay: Uptake of oxaliplatin (total platinum and intact drug) in LOVO cells
Procedure: as §1, §5, §6

HCT-116 cells [4] = assay: Elimination of oxaliplatin in HCT-116 cells; assay type: in vitro ADME, Human; conditions: HCT-116, 200 µm oxaliplatin 30 min
Procedure: (§7) Cells were used for studying cellular pharmacokinetics of oxaliplatin.
(§8) Then the drug-containing medium was discarded and the cell monolayers were washed three times with cold HBSS. After that, fresh blank medium was added to the monolayers with incubation for different times of 5, 15, 30, 45, 60, 120 min.
(§9) To evaluate the elimination behavior of oxaliplatin in colon cancer cells, both oxaliplatin and total platinum of samples are determined by UPLC-MS/MS and ICP-MS method. The results are all normalized to cell protein.

[5] = Pharmacokinetics of total platinum in rats (ICP-MS) in blood, plasma and ultrafiltrate plasma; conditions: intraperitoneal, 16.7 nmol/kg, mean ± sd (n = 6)
Procedure: The biological samples were pretreatmented by adding 60-fold volume of ICP-MS diluent, which is an aqueous solution containing 2% nitric acid and 0.5% Triton. After vortex for 30 s, the samples were placed quietly for few minutes to obtain a clear supernatant for ICP-MS analysis of total platinum.
Platinum determination was performed with a NexION 2000 Inductively Coupled Plasma-Mass Spectrometer and a Syngistix™ Software-ES version 2.4 (PerkinElmer, USA). Instrumental settings were optimized in order to yield maximum sensitivity for platinum, with the scan mode Peak Hopping, Dwell time per AMU 50 ms and single MCA Channel. […] The assay method was evaluated with four kinds of matrix including blood, plasma, ultrafiltrate plasma, and cell lysate.
(§10) Male Sprague-Dawley rats (n = 18, 200 ± 20g) were provided by Shanghai Jiesijie Experimental Animal Co., Ltd (Shanghai, China) and certificate number was scxk (hu) 2013-0006. Animals were allowed to adapt to the housing environment for 1 week prior to study. […] All animal studies were approved by the Animal Ethics Committee of China Pharmaceutical University.
(§11) Blood-sampling times were arranged as 0, 0.083, 0.5, 1, 2, 4, 8, 12, 24, 48, 72h post-dose for all three platinum-based anticancer drugs. When each time point reached, blood samples (about 800 µl) were collected from the fossa orbitalis. 150 µl of the blood was spiked into another 1.5 ml tube as the blood sample. The rest of the blood was centrifuged immediately at 8,000 rpm for 10 min and the supernatant plasma was harvested. 50 µl of the supernatant plasma was spiked into 1.5 ml for determining total platinum in plasma sample and 50 µl of the supernatant plasma was spiked into 1.5 ml tube for determining intact platinum-based drug in plasma. The remaining plasma was used to prepare ultrafiltrate plasma with Amicon® Ultra 10K Centrifugal Filter Devices, centrifuged at 14,000 g for 20 min. All the samples were stored at -80 °C until analysis.
(§12) The pharmacokinetic parameters were calculated using the software WinNonlion Version 6.4 by non-compartmental method. Statistical significance was tested by Student’s t -test. P < 0.05 was considered statistically significant, while P < 0.01 was considered highly significant.

LOVO cells [6] = assay: Subcellular distribution of oxaliplatin (total Pt by ICP-MS) in LOVO cells; conditions: 200 µm oxaliplatin, within 2 h
Procedure: as §1, §2, §3, §4

[7] = Pharmacokinetics of intact platinum-based drugs in rats (UPLC-MS/MS) in blood, plasma and ultrafiltrate plasma; conditions: intraperitoneal; for complete elimination time of intact drug: equal moles, plasma and ultrafiltrate plasma
Procedure: The biological samples were pretreatmented by precipitation with acetonitrile. To each 50 µl sample volume, 200 µl of acetonitrile containing IS (25 ng/ml) was added. The samples were then centrifuged for 10 min at 15,000 rpm, after which 5 µl of the supernatant was injected into the UPLC column for analysis of intact drug.
The ACQUITY UPLC I class system consisted of an autosampler, pump, column oven, and controller (waters, MA, USA). Chromatographic separation was performed on an ACQUITY UPLC BEH Amide column (Part NO:186004800, 1.7 µm, 2.1 × 50mm, Waters, MA, USA) and the pre-column is ACQUITY UPLC BEH C18 (1.7µm, Waters, MA, USA). The binary mobile phase consisted of mobile phase B: acetonitrile and mobile phase A: water containing 5 mm ammonium acetate. The injection volume was 5 µl and the column temperature was 40°C. The gradient program was as follows: 0–1 min, 95% phase B; 1–2 min, 95–70% phase B; 2–4 min,70% phase B; 4–5 min, 70–95% phase B; 5–7min, 95% phase B. The total run time is 7.0 min and the flow rate was set at 0.6 ml/min.
The UPLC system was interfaced with a Xevo TQ-XS Mass Spectrometer with MassLynx V4.2 software package (Waters, MA, USA). The mass spectrometer was operated using Turbo Spray source in positive multiple-reaction monitoring-mode (MRM) for intact drug determination. […] The optimal parameters for MS/MS conditions are as follows: capillary 2.4 kV; cone 25 V; desolvation temperature 450 °C.
The assay method was evaluated with four kinds of matrix including blood, plasma, ultrafiltrate plasma, and cell lysate. […] The precision and accuracy for three intact platinum-based drugs in blood/plasma/ultrafiltrate plasma were investigated by replicate analysis of six sets of samples at four concentration levels: 2, 5, 200, and 4,000 ng/ml. The precision and accuracy for the assay method in cell lysate were investigated at four concentration levels of 2, 5, 20, and 160 ng/ml.
as §10, §11, §12

LOVO cells [8] = assay: Elimination of oxaliplatin in LOVO cells; assay type: in vitro ADME, Human; conditions: 200 µm oxaliplatin 30 min
Procedure: as §7, §8, §9

[9] = ng Pt/mg protein of subcellular organelles
[10] = HCT-116, 200 µm oxaliplatin, 15-120 min, normalized to cellular protein
[11] = 200 µm oxaliplatin, 15-120 min, normalized to cellular protein
[12] = total Pt in ultrafiltrate plasma
[13] = intact drug in blood, 16.7 nmol/kg, mean ± sd (n = 6)
[14] = intact drug in plasma, 16.7 nmol/kg, mean ± sd (n = 6)
[15] = intact drug in ultrafiltrate plasma, 16.7 nmol/kg, mean ± sd (n = 6)

Row | SMILES | Vz ([5]; total Pt in blood) [L/kg] | Cl ([5]; total Pt in plasma) [mL/h/kg] | Vz ([5]; total Pt in plasma) [L/kg] | Cl [5, 12] [mL/h/kg] | Vz [5, 12] [L/kg] | Cl [7, 13] | Cmax [7, 13] [µM] | T1/2 [7, 13] [min] | Vz [7, 13] | Cl [7, 14] | Cmax [7, 14] [µM] | T1/2 [7, 14] [min] | Vz [7, 14] | Cl [7, 15] | Cmax [7, 15] [µM] | T1/2 [7, 15] [min] | Vz [7, 15] [L/kg] | complete elimination time of intact drug ([7]; intact drug in blood) [h] | also measured
1 | O=C1[O][Pt]2([NH][C@@H]3CCCC[C@H]3[NH]2)[O]C1=O [oxaliplatin, Oxaliplatin] | 0.001 | 0.1 | 0.004 | 1.4 | 0.038 | 49 mL/h/kg and 49 ± 6.6 mL/h/kg | 0.42 ± 0.06 | 33 ± 2.4 | 0.0408 L/kg and 0.0408 ± 0.0058 L/kg | 6.9 mL/h/kg and 6.9 ± 0.6 mL/h/kg | 3.9 ± 0.34 | 10.8 ± 0 | 0.0018 L/kg and 0.0018 ± 0.0001 L/kg | 7.2 mL/h/kg and 7.2 ± 1.7 mL/h/kg | 3.93 ± 0.45 | 10.8 ± 0.6 | 0.0019 ± 0.0006 | 2 | subcellular accumulation of Pt in organelles over incubation time (HCT-116 cells [1]): increased with the increasing incubation time; order of Pt concentration in cytosol, mitochondria and nucleus (HCT-116 cells [1]; [9]): the concentration of Pt in cytosol is more than that in mitochondria, followed by the concentration of Pt in nucleus; cellular concentration of total platinum and intact oxaliplatin versus medium concentration (HCT-116 cells [2]; HCT-116, 20-500 µM oxaliplatin, 30 min): increased with increasing medium concentration of oxaliplatin; cellular accumulation of intact oxaliplatin over incubation time (HCT-116 cells [2]; [10]): increased over incubation time at the beginning of drug treatment (0–45 min), then gradually decreased (45–120 min); cellular total platinum over incubation time (HCT-116 cells [2]; [10]): increased within increasing incubation time; cellular accumulation of platinum or oxaliplatin versus temperature (HCT-116 cells [2]; HCT-116, 200 µm oxaliplatin, 30 min, 4 °C vs 37 °C, P < 0.001): significant higher at 37 °C than that at 4 °C; cellular concentration of total platinum and intact oxaliplatin versus medium concentration (LOVO cells [3]; 20-500 µM oxaliplatin, 30 min): increased with increasing medium concentration of oxaliplatin; cellular accumulation of intact oxaliplatin over incubation time (LOVO cells [3]; [11]): increased over incubation time at the beginning of drug treatment (0–45 min), then gradually decreased (45–120 min); cellular total platinum over incubation time (LOVO cells [3]; [11]): increased within increasing incubation time; cellular accumulation of platinum or oxaliplatin versus temperature (LOVO cells [3]; 200 µm oxaliplatin, 30 min, 4 °C vs 37 °C, P < 0.001): significant higher at 37 °C than that at 4 °C; time to complete elimination of cellular intact oxaliplatin (HCT-116 cells [4]; then blank medium): 1 h; cellular platinum after change to blank medium (HCT-116 cells [4]; then blank medium up to 2 h): just has a little decrease in 2 h; subcellular accumulation of Pt in organelles over incubation time (LOVO cells [6]): increased with the increasing incubation time; order of Pt concentration in cytosol, mitochondria and nucleus (LOVO cells [6]; [9]): the concentration of Pt in cytosol is more than that in mitochondria, followed by the concentration of Pt in nucleus; time to complete elimination of cellular intact oxaliplatin (LOVO cells [8]; then blank medium): 1 h; cellular platinum after change to blank medium (LOVO cells [8]; then blank medium up to 2 h): just has a little decrease in 2 h
2 | N.N.O=C([O-])C1(C(=O)[O-])CCC1.[Pt+2] [carboplatin, Carboplatin] | 0.009 | 0.33 | 0.014 | 0.67 | 0.016 | 1.1 mL/h/kg and 1.1 ± 0.1 mL/h/kg | 9.9 ± 0.45 | 122 ± 7.8 | 0.0033 L/kg and 0.0033 ± 0.0004 L/kg | 0.1 mL/h/kg | 11.2 ± 0.49 | 117 ± 7.2 | 0.0028 L/kg and 0.0028 ± 0.0003 L/kg | 1.2 mL/h/kg and 1.2 ± 0.2 mL/h/kg | 10.1 ± 0.75 | 91.2 ± 29.4 | 0.0027 ± 0.0009 | 12 | Tmax [7, 15]: 25.2 ± 11.4 min

— publication PMC6960190, “Systemic Evaluation on the Pharmacokinetics of Platinum-Based Anticancer Drugs From Animal to Cell Level: Based on Total Platinum and Intact Drugs” (Frontiers in Pharmacology, 2020)
